Where two headings read alike, the source gives them in different places. Where a SMILES comes first, the peptide text is derived from it. Bridges are numbered along the chain shown (N, C = ends). [ ]: non-standard residue; d: D form. The star is where a group is joined. Ileψ(thiazoline)Cys = CC[C@H](C)[C@H](N)C1=N[C@H](C(=O)*)CS1; dOrn = NCCC[C@@H](N)C(=O)O
How the values were obtained:
reactive oxygen species = format: cell-based, mouse
[1] = test system: mitochondrial membrane potential; format: cell-based, mouse
mtOXPHOS transcripts = format: cell-based, mouse
[2] = test system: cellular dehydrogenase activity
cytochrome c = format: cell-based, mouse
OXPHOS gene expression = format: cell-based, mouse
nuOXPHOS transcripts = format: cell-based, mouse
[3] = normalized composite Z-score vs mock-treated (DMSO) wells, Conc 20 μM
[4] = Conc 20 μM, normalized score vs mock-treated (DMSO) wells
[5] = composite Z-score vs DMSO, Conc 20 μM
[6] = composite Z-score vs DMSO, Conc 9.58 μM
[7] = 20 μM, composite Z-score vs DMSO
[8] = composite Z-score vs mock-treated (DMSO) wells, concentration of each compound in μM
[9] = composite Z-score vs mock-treated (DMSO) wells, Conc 20 μM
[10] = composite Z-score vs DMSO wells, Conc 20 μM

CC1=CC(=O)CC(C)(C)[C@@]1(O)/C=C/C(C)=C\C(=O)O [abscisic acid]
ROS (reactive oxygen species; [3]): −0.476 | ΔΨm [1, 3]: −0.565 | mitoOX (mtOXPHOS transcripts; [3]): 0.299 | MTT [2, 3]: −1.053 | cyt c (cytochrome c; [3]): 0.179 | Viability (C2C12 myotubes; [3]): 0.309 | GE-HTS (OXPHOS gene expression; [3]): 0.469 | nucOX (nuOXPHOS transcripts; [3]): 0.509

CC(=O)OCC(=O)[C@@]1(O)CC[C@H]2[C@@H]3C[C@H](C)C4=CC(=O)C=C[C@]4(C)[C@H]3[C@@H](O)C[C@@]21C [6alpha-methylprednisolone acetate]
ROS (composite Z-score) (reactive oxygen species; [4]): 0.321 | ΔΨm (composite Z-score) [1, 4]: −0.462 | mitoOX (composite Z-score) (mtOXPHOS transcripts; [4]): 0.750 | MTT (composite Z-score) [2, 4]: −1.192 | cyt c (composite Z-score) (cytochrome c; [4]): −0.364 | Viability (composite Z-score) (C2C12 myotubes; [4]): −0.480 | GE-HTS (composite Z-score) (OXPHOS gene expression; [4]): −0.130 | nucOX (composite Z-score) (nuOXPHOS transcripts; [4]): −0.518

O=C(C=C(O)c1ccccc1)c1ccccc1O [2′,beta-dihydroxychalcone]
ROS (reactive oxygen species; [5]): 0.194 | ΔΨm [1, 5]: −0.044 | mitoOX (mtOXPHOS transcripts; [5]): 0.600 | MTT [2, 5]: −1.791 | cyt c (cytochrome c; [5]): −0.260 | Viability (C2C12 myotubes; [5]): −0.801 | GE-HTS (OXPHOS gene expression; [5]): 0.097 | nucOX (nuOXPHOS transcripts; [5]): −0.188

COCCc1ccc(OCC(O)CNC(C)C)cc1 (stereo not shown) [metoprolol, reference compound]
ROS (reactive oxygen species; [6]): 0.253 | ROS (reactive oxygen species; [5]): 0.652 | ΔΨm [1, 6]: −0.997 | ΔΨm [1, 5]: −0.515 | mitoOX (mtOXPHOS transcripts; [6]): −0.342 | mitoOX (mtOXPHOS transcripts; [5]): 0.241 | MTT [2, 6]: −1.894 | MTT [2, 5]: −1.660 | cyt c (cytochrome c; [6]): 0.496 | cyt c (cytochrome c; [5]): 0.596 | Viability (C2C12 myotubes; [6]): 0.437 | Viability (C2C12 myotubes; [5]): 0.326 | GE-HTS (OXPHOS gene expression; [6]): −0.423 | GE-HTS (OXPHOS gene expression; [5]): 0.450 | nucOX (nuOXPHOS transcripts; [6]): −0.430 | nucOX (nuOXPHOS transcripts; [5]): 0.546

CC[C@H](C)[C@H](N)C1=N[C@H](C(=O)N[C@@H](CC(C)C)C(=O)N[C@H](CCC(=O)O)C(=O)N[C@H](C(=O)N[C@H]2CCCCNC(=O)[C@H](CC(N)=O)NC(=O)[C@@H](CC(=O)O)NC(=O)[C@H](Cc3cnc[nH]3)NC(=O)[C@@H](Cc3ccccc3)NC(=O)[C@H]([C@@H](C)CC)NC(=O)[C@@H](CCCN)NC2=O)[C@@H](C)CC)CS1 [bacitracin] ({Ileψ(thiazoline)Cys}-L[dE]IK[dOrn]I[dF]H[dD]N; lactam 4-C)
ROS (reactive oxygen species; [7]): 1.177 | ROS (reactive oxygen species; [8]): 0.105 | ΔΨm [1, 7]: −0.113 | ΔΨm [1, 8]: −0.214 | mitoOX (mtOXPHOS transcripts; [7]): 0.798 | mitoOX (mtOXPHOS transcripts; [8]): −0.189 | MTT [2, 7]: −0.826 | MTT [2, 8]: −0.310 | cyt c (cytochrome c; [7]): 0.305 | cyt c (cytochrome c; [8]): −0.806 | Viability (C2C12 myotubes; [7]): −0.312 | Viability (C2C12 myotubes; [8]): −0.938 | GE-HTS (OXPHOS gene expression; [7]): 1.271 | GE-HTS (OXPHOS gene expression; [8]): −0.592 | nucOX (nuOXPHOS transcripts; [7]): 1.374 | nucOX (nuOXPHOS transcripts; [8]): −0.736

COc1cc2c(cc1OC)[C@@H]1C(=O)c3ccc(OC)c(CC=C(C)C)c3O[C@@H]1CO2 [rotenonic acid, methyl ether]
ROS (reactive oxygen species; [9]): −3.513 | ΔΨm [1, 9]: −3.751 | mitoOX (mtOXPHOS transcripts; [9]): −4.305 | MTT [2, 9]: −3.898 | cyt c (cytochrome c; [9]): −3.644 | Viability (C2C12 myotubes; [9]): 0.582 | GE-HTS (OXPHOS gene expression; [9]): −2.268 | nucOX (nuOXPHOS transcripts; [9]): −1.024

CC(C)=CCc1c2c(c(O)c3c(=O)c(O)c(-c4ccccc4)oc13)C=CC(C)(C)O2 [sericetin]
ROS (reactive oxygen species; [3]): 0.124 | ΔΨm [1, 3]: 6.788 | mitoOX (mtOXPHOS transcripts; [3]): −1.132 | MTT [2, 3]: −1.507 | cyt c (cytochrome c; [3]): −0.335 | Viability (C2C12 myotubes; [3]): −0.783 | GE-HTS (OXPHOS gene expression; [3]): −0.890 | nucOX (nuOXPHOS transcripts; [3]): −0.670

OC[C@H]1O[C@@H](n2cnc3c(NCc4ccco4)ncnc32)[C@H](O)[C@@H]1O [kinetin riboside]
ROS (reactive oxygen species; [5]): −2.722 | ΔΨm [1, 5]: −1.350 | mitoOX (mtOXPHOS transcripts; [5]): 0.750 | MTT [2, 5]: −4.309 | cyt c (cytochrome c; [5]): −2.612 | Viability (C2C12 myotubes; [5]): −1.883 | GE-HTS (OXPHOS gene expression; [5]): 0.882 | nucOX (nuOXPHOS transcripts; [5]): 0.853

CC(C)(C)NCC(O)c1ccccc1Cl (stereo not shown) [tulobuterol]
ROS (reactive oxygen species; [7]): 0.569 | ΔΨm [1, 7]: −1.186 | mitoOX (mtOXPHOS transcripts; [7]): 0.258 | MTT [2, 7]: −0.706 | cyt c (cytochrome c; [7]): 0.326 | Viability (C2C12 myotubes; [7]): −0.239 | GE-HTS (OXPHOS gene expression; [7]): −0.101 | nucOX (nuOXPHOS transcripts; [7]): −0.257

Cc1ccc2c(c1)CC[C@H]1CC(=O)CC[C@]21C
ROS (reactive oxygen species; [9]): 0.072 | ΔΨm [1, 9]: −0.470 | mitoOX (mtOXPHOS transcripts; [9]): 0.748 | MTT [2, 9]: −2.132 | cyt c (cytochrome c; [9]): 0.009 | Viability (C2C12 myotubes; [9]): −0.093 | GE-HTS (OXPHOS gene expression; [9]): 0.903 | nucOX (nuOXPHOS transcripts; [9]): 0.870

C[C@]12CC[C@H]3[C@@H](CC[C@]4(O)C[C@@H](O)CC[C@]34C=O)[C@@]1(O)CC[C@@H]2C1=CC(=O)OC1 [strophanthidin]
ROS (reactive oxygen species): 0.947 | ROS (reactive oxygen species; [10]): 1.582 | ROS (reactive oxygen species; [3]): 1.036 | ΔΨm [1]: −0.175 | ΔΨm [1, 10]: −1.126 | ΔΨm [1, 3]: −0.481 | mitoOX (mtOXPHOS transcripts): −0.190 | mitoOX (mtOXPHOS transcripts; [10]): −0.231 | mitoOX (mtOXPHOS transcripts; [3]): −1.094 | MTT [2]: −0.908 | MTT [2, 10]: −0.828 | MTT [2, 3]: −1.573 | cyt c (cytochrome c): 0.287 | cyt c (cytochrome c; [10]): 1.100 | cyt c (cytochrome c; [3]): 0.687 | Viability (C2C12 myotubes): −0.448 | Viability (C2C12 myotubes; [10]): 0.028 | Viability (C2C12 myotubes; [3]): −1.016 | GE-HTS (OXPHOS gene expression): −0.590 | GE-HTS (OXPHOS gene expression; [10]): −0.232 | GE-HTS (OXPHOS gene expression; [3]): −0.789 | nucOX (nuOXPHOS transcripts): −0.729 | nucOX (nuOXPHOS transcripts; [10]): −0.222 | nucOX (nuOXPHOS transcripts; [3]): −0.525

Cc1cc(OC(=O)c2c(C)cc(OC(=O)c3c(C)cc(O)cc3O)cc2O)cc(O)c1C(=O)O [gyrophoric acid]
ROS (reactive oxygen species; [3]): 0.897 | ΔΨm [1, 3]: −0.842 | mitoOX (mtOXPHOS transcripts; [3]): −0.289 | MTT [2, 3]: −0.977 | cyt c (cytochrome c; [3]): −0.557 | Viability (C2C12 myotubes; [3]): −0.579 | GE-HTS (OXPHOS gene expression; [3]): −0.471 | nucOX (nuOXPHOS transcripts; [3]): −0.546

COc1ccc(-c2coc3cc(O)ccc3c2=O)c(OC)c1 [2′-methoxyformonetin]
ROS (reactive oxygen species; [9]): 1.137 | ΔΨm [1, 9]: 0.388 | mitoOX (mtOXPHOS transcripts; [9]): −0.296 | MTT [2, 9]: −1.138 | cyt c (cytochrome c; [9]): −1.318 | Viability (C2C12 myotubes; [9]): 0.477 | GE-HTS (OXPHOS gene expression; [9]): −0.484 | nucOX (nuOXPHOS transcripts; [9]): −0.561

C[C@@H]([C@H]1OC(C)(C)[C@@H](O)[C@H]1O)[C@@H]1CC[C@]2(C)C3=CC[C@H]4C(C)(C)C(=O)CC[C@]4(C)[C@H]3CC[C@@]12C [odoratone]
ROS (reactive oxygen species; [9]): 0.083 | ΔΨm [1, 9]: 0.367 | mitoOX (mtOXPHOS transcripts; [9]): −0.873 | MTT [2, 9]: −1.060 | cyt c (cytochrome c; [9]): 0.707 | Viability (C2C12 myotubes; [9]): 0.542 | GE-HTS (OXPHOS gene expression; [9]): −0.994 | nucOX (nuOXPHOS transcripts; [9]): −0.988

CNC[C@H](O)c1cccc(O)c1 [phenylephrine]
ROS (reactive oxygen species): 0.474 | ΔΨm [1]: −0.460 | mitoOX (mtOXPHOS transcripts): 0.536 | MTT [2]: 1.105 | cyt c (cytochrome c): −0.187 | Viability (C2C12 myotubes): −0.349 | GE-HTS (OXPHOS gene expression): 0.254 | nucOX (nuOXPHOS transcripts): 0.120

COc1ccc([C@@H]2CC(=O)c3c(O)cc(O[C@@H]4O[C@H](CO[C@@H]5O[C@@H](C)[C@H](O)[C@@H](O)[C@H]5O)[C@@H](O)[C@H](O)[C@H]4O)cc3O2)cc1O [hesperidin]
ROS (reactive oxygen species; [7]): −0.281 | ΔΨm [1, 7]: −0.251 | mitoOX (mtOXPHOS transcripts; [7]): −1.561 | MTT [2, 7]: −0.992 | cyt c (cytochrome c; [7]): 0.621 | Viability (C2C12 myotubes; [7]): 0.694 | GE-HTS (OXPHOS gene expression; [7]): −0.618 | nucOX (nuOXPHOS transcripts; [7]): −0.106

Reference: US20090143279A1 (priority 2007, published 2009)
